ChEMBL document CHEMBL2029220, “Oxaphosphinanes: new therapeutic perspectives for glioblastoma” (J Med Chem, 2012)
The source made the active and inactive calls. No cut-off for these calls is given here.

Columns and labels:
[1] = tested on: C6; assay: Antiproliferative activity against rat C6 cells after 48 hrs by MTT assay; type: functional, cell-based; details: C6, 48 h
[2] = tested on: SNB-75; assay: Antiproliferative activity against human SNB75 cells at 10 uM after 24 hrs by SRB assay; type: functional, cell-based
[3] = Cytotoxicity against mouse astrocytes assessed as decrease in cell viability after 48 hrs by Hoechst 33342 staining; type: cell-based; details: astrocyte
[4] = tested on: SF-295; assay: Antiproliferative activity against human SF295 cells at 10 uM after 24 hrs by SRB assay; type: functional, cell-based
[5] = Cytotoxicity against mouse astrocytes assessed as decrease in cell viability at 10 uM after 48 hrs by neutral red incorporation assay; type: cell-based; details: astrocyte
[6] = Cytotoxicity against mouse astrocytes assessed as decrease in cell viability after 48 hrs by propidium iodide incorporation assay; type: cell-based; details: astrocyte
[7] = tested on: C6; assay: Antiproliferative activity against rat C6 cells at 0.1 to 10 uM after 48 hrs by neutral red incorporation assay; type: functional, cell-based
[8] = tested on: C6; assay: Antiproliferative activity against rat C6 cells at 100 uM after 48 hrs by neutral red incorporation assay; type: functional, cell-based
[9] = Cytotoxicity against mouse astrocytes assessed as decrease in cell viability at 1 to 100 uM after 48 hrs by Hoechst 33342 staining; type: cell-based; details: astrocyte
[10] = Cytotoxicity against mouse astrocytes assessed as decrease in cell viability at 1 to 100 uM after 48 hrs by neutral red incorporation assay; type: cell-based; details: astrocyte
[11] = Cytotoxicity against mouse astrocytes assessed as decrease in cell viability at 1 to 100 uM after 48 hrs by propidium iodide incorporation assay; type: cell-based; details: astrocyte
[12] = Cytotoxicity against mouse astrocytes assessed as decrease in cell viability at 1 to 10 uM after 48 hrs by neutral red incorporation assay; type: cell-based; details: astrocyte
[13] = Cytotoxicity against mouse astrocytes assessed as decrease in cell viability at 1 to 10 uM after 48 hrs by propidium iodide incorporation assay; type: cell-based; details: astrocyte
[14] = Cytotoxicity against mouse astrocytes assessed as decrease in cell viability at 0.1 uM after 48 hrs by Hoechst 33342 staining; type: cell-based; details: astrocyte
[15] = Cytotoxicity against mouse astrocytes assessed as decrease in cell viability at 0.1 uM after 48 hrs by neutral red incorporation assay; type: cell-based; details: astrocyte
[16] = Cytotoxicity against mouse astrocytes assessed as decrease in cell viability at 0.1 uM after 48 hrs by propidium iodide incorporation assay; type: cell-based; details: astrocyte

Structure (SMILES) | EC50 [1] | other results
O=C(O[C@@H]1[C@@H](OCc2ccccc2)[C@H](OCc2ccccc2)[C@@H](COCc2ccccc2)O[P@@]1(=O)c1ccccc1)C(F)(F)F | > 25 µM | –
N[C@@H]1[C@@H](OCc2ccccc2)[C@H](OCc2ccccc2)[C@@H](COCc2ccccc2)O[P@@]1(=O)c1ccccc1 | 16.3 µM | –
CSC(=S)O[C@H]1[C@@H](OCc2ccccc2)[C@H](OCc2ccccc2)[C@@H](COCc2ccccc2)O[P@@]1(=O)c1ccccc1 | > 25 µM | –
CC(=O)O[C@H]1C(=O)[C@@]2(C)[C@H]([C@H](OC(=O)c3ccccc3)[C@]3(O)C[C@H](OC(=O)[C@H](O)[C@@H](NC(=O)c4ccccc4)c4ccccc4)C(C)=C1C3(C)C)[C@]1(OC(C)=O)CO[C@@H]1C[C@@H]2O [PACLITAXEL] | – | growth inhibition (GI) [2]: Active; Activity [3]: Dose-dependent effect; growth inhibition (GI) [4]: Active; Activity [5]: 28%; Activity [6]: Dose-dependent effect; Activity [7]: Active
Cc1ccc([P@@]2(=O)O[C@H](COCc3ccccc3)[C@@H](OCc3ccccc3)[C@H](OCc3ccccc3)[C@H]2O)cc1 | > 25 µM | –
C=CCN[C@@H]1[C@@H](OCc2ccccc2)[C@H](OCc2ccccc2)[C@@H](COCc2ccccc2)O[P@@]1(=O)c1ccccc1 | 0.49 µM | –
O=[P@]1(c2ccccc2)C[C@@H](OCc2ccccc2)[C@H](OCc2ccccc2)[C@@H](COCc2ccccc2)O1 | 8.3 µM | –
O=[P@]1(c2cccc(C(F)(F)F)c2)O[C@H](COCc2ccccc2)[C@@H](OCc2ccccc2)[C@H](OCc2ccccc2)[C@@H]1O | > 25 µM | –
COc1cccc([P@@]2(=O)O[C@H](COCc3ccccc3)[C@@H](OCc3ccccc3)[C@H](OCc3ccccc3)[C@H]2O)c1 | > 25 µM | –
O=[P@@]1(c2cccc(C(F)(F)F)c2)O[C@H](COCc2ccccc2)[C@@H](OCc2ccccc2)[C@H](OCc2ccccc2)[C@@H]1O | > 25 µM | –
Cc1ccc([P@@]2(=O)O[C@H](COCc3ccccc3)[C@@H](OCc3ccccc3)[C@H](OCc3ccccc3)[C@@H]2O)cc1 | > 25 µM | –
COc1ccc([P@]2(=O)O[C@H](COCc3ccccc3)[C@@H](OCc3ccccc3)[C@H](OCc3ccccc3)[C@H]2O)cc1 | 8.4 µM | –
Cc1ccc([P@]2(=O)O[C@H](COCc3ccccc3)[C@@H](OCc3ccccc3)[C@H](OCc3ccccc3)[C@@H]2O)cc1 | > 25 µM | –
CO[C@@H]1[C@@H](OCc2ccccc2)[C@H](OCc2ccccc2)[C@@H](COCc2ccccc2)O[P@@]1(=O)c1ccccc1 | 16.6 µM | –
O=[P@]1(c2ccccc2)O[C@H](COCc2ccccc2)[C@@H](OCc2ccccc2)[C@H](OCc2ccccc2)[C@@H]1O (single isomer, unassigned) | 12 µM | –
O=[P@@]1(c2ccccc2)O[C@H](COCc2ccccc2)[C@@H](OCc2ccccc2)[C@H](OCc2ccccc2)[C@H]1OCc1ccccc1 | 5.3 µM | –
COc1ccc([P@@]2(=O)O[C@H](COCc3ccccc3)[C@@H](OCc3ccccc3)[C@H](OCc3ccccc3)[C@H]2O)cc1 | 15 µM | –
O=[P@]1(c2cccc(C(F)(F)F)c2)O[C@H](COCc2ccccc2)[C@@H](OCc2ccccc2)[C@H](OCc2ccccc2)[C@H]1O | > 25 µM | –
COc1cccc([P@]2(=O)O[C@H](COCc3ccccc3)[C@@H](OCc3ccccc3)[C@H](OCc3ccccc3)[C@@H]2O)c1 | > 25 µM | –
COc1ccc([P@@]2(=O)O[C@H](COCc3ccccc3)[C@@H](OCc3ccccc3)[C@H](OCc3ccccc3)[C@@H]2O)cc1 | 15 µM | –
O=[P@@]1(c2ccccc2)O[C@H](COCc2ccccc2)[C@@H](OCc2ccccc2)[C@H](OCc2ccccc2)[C@H]1NCc1ccccc1 | 2.68 µM | –
Cn1nnc2c(C(N)=O)ncn2c1=O [TEMOZOLOMIDE] | – | Activity [8]: Active; growth inhibition (GI) [2]: Active; Activity [9]: Non-toxic; Activity [10]: Non-toxic; growth inhibition (GI) [4]: Active; Activity [11]: Non-toxic
O=[P@@]1(c2cccc(F)c2)O[C@H](COCc2ccccc2)[C@@H](OCc2ccccc2)[C@H](OCc2ccccc2)[C@@H]1O | > 25 µM | –

Structure (SMILES) | EC50 [1] | other results
O=[P@]1(c2ccccc2)O[C@H](COCc2ccccc2)[C@@H](OCc2ccccc2)[C@H](OCc2ccccc2)[C@H]1O | 12 µM | –
O=C(Nc1ccccc1)N[C@@H]1[C@@H](OCc2ccccc2)[C@H](OCc2ccccc2)[C@@H](COCc2ccccc2)O[P@@]1(=O)c1ccccc1 | 4.4 µM | –
CSC(=S)O[C@@H]1[C@@H](OCc2ccccc2)[C@H](OCc2ccccc2)[C@@H](COCc2ccccc2)O[P@@]1(=O)c1ccccc1 | 14 µM | –
N[C@H]1[C@@H](OCc2ccccc2)[C@H](OCc2ccccc2)[C@@H](COCc2ccccc2)O[P@@]1(=O)c1ccccc1 | 18.7 µM | –
[N-]=[N+]=N[C@H]1[C@@H](OCc2ccccc2)[C@H](OCc2ccccc2)[C@@H](COCc2ccccc2)O[P@@]1(=O)c1ccccc1 | > 25 µM | –
Cc1cccc([P@]2(=O)O[C@H](COCc3ccccc3)[C@@H](OCc3ccccc3)[C@H](OCc3ccccc3)[C@@H]2O)c1 | > 25 µM | –
O=NN(CCCl)C(=O)NCCCl [CARMUSTINE] | – | Activity [9]: Non-toxic; Activity [10]: Non-toxic; Activity [7]: Active; Activity [11]: Non-toxic
O=[P@]1(c2cccc(F)c2)O[C@H](COCc2ccccc2)[C@@H](OCc2ccccc2)[C@H](OCc2ccccc2)[C@H]1O | > 25 µM | –
[N-]=[N+]=N[C@@H]1[C@@H](OCc2ccccc2)[C@H](OCc2ccccc2)[C@@H](COCc2ccccc2)O[P@@]1(=O)c1ccccc1 | 16.7 µM | –
O=[P@@]1(c2cccc(F)c2)O[C@H](COCc2ccccc2)[C@@H](OCc2ccccc2)[C@H](OCc2ccccc2)[C@H]1O | > 25 µM | –
COc1ccc([P@]2(=O)O[C@H](COCc3ccccc3)[C@@H](OCc3ccccc3)[C@H](OCc3ccccc3)[C@@H]2O)cc1 | 2.9 µM | –
O=C(O[C@@H]1[C@@H](OCc2ccccc2)[C@H](OCc2ccccc2)[C@@H](COCc2ccccc2)O[P@@]1(=O)c1ccccc1)c1ccccc1 | > 25 µM | –
Cc1ccc([P@]2(=O)O[C@H](COCc3ccccc3)[C@@H](OCc3ccccc3)[C@H](OCc3ccccc3)[C@H]2O)cc1 | > 25 µM | –
CC(=O)O[C@@H]1[C@@H](OCc2ccccc2)[C@H](OCc2ccccc2)[C@@H](COCc2ccccc2)O[P@@]1(=O)c1ccccc1 | 11.9 µM | –
COc1cccc([P@]2(=O)O[C@H](COCc3ccccc3)[C@@H](OCc3ccccc3)[C@H](OCc3ccccc3)[C@H]2O)c1 | > 25 µM | –
Cc1cccc([P@@]2(=O)O[C@H](COCc3ccccc3)[C@@H](OCc3ccccc3)[C@H](OCc3ccccc3)[C@H]2O)c1 | > 25 µM | –
COc1cccc([P@@]2(=O)O[C@H](COCc3ccccc3)[C@@H](OCc3ccccc3)[C@H](OCc3ccccc3)[C@@H]2O)c1 | > 25 µM | –
Cc1cccc([P@]2(=O)O[C@H](COCc3ccccc3)[C@@H](OCc3ccccc3)[C@H](OCc3ccccc3)[C@H]2O)c1 | > 25 µM | –
O=[P@@]1(c2cccc(C(F)(F)F)c2)O[C@H](COCc2ccccc2)[C@@H](OCc2ccccc2)[C@H](OCc2ccccc2)[C@H]1O | > 25 µM | –
CC[C@]1(O)C[C@H]2CN(CCc3c([nH]c4ccccc34)[C@@](C(=O)OC)(c3cc4c(cc3OC)N(C=O)[C@H]3[C@@](O)(C(=O)OC)[C@H](OC(C)=O)[C@]5(CC)C=CCN6CC[C@]43[C@@H]65)C2)C1 [VINCRISTINE] | – | Activity [12]: 60%; Activity [13]: Toxic; Activity [14]: Toxic; Activity [7]: Active; Activity [15]: Toxic; Activity [16]: Toxic
O=[P@]1(c2cccc(F)c2)O[C@H](COCc2ccccc2)[C@@H](OCc2ccccc2)[C@H](OCc2ccccc2)[C@@H]1O | > 25 µM | –
Cc1cccc([P@@]2(=O)O[C@H](COCc3ccccc3)[C@@H](OCc3ccccc3)[C@H](OCc3ccccc3)[C@@H]2O)c1 | > 25 µM | –
